The values below come from US7019109B2, “SSTR1-selective analogs” (The Salk Institute for Bilogical Studies, priority 2001, dated 2006).

Where two headings read alike, the source gives them in different places. *1 amine or outer side, *2 acyl side, *3 side chain or, on linkers, in order; H or OH if unused. Where a SMILES comes first, the peptide text is derived from it. Bridges are numbered along the chain shown (N, C = ends). [ ]: non-standard residue; d: D form. The star is where a group is joined. NMePhe(4-CH2NHiPr) = CN[C@@H](Cc1ccc(CNC(C)C)cc1)C(=O)O; Tyr(Nα-carbamoyl) = NC(=O)N[C@@H](Cc1ccc(O)cc1)C(=O)*; Phe(4-CH2NHiPr) = CC(C)NCc1ccc(C[C@H](N)C(=O)O)cc1; X3 = NC(=O)N[C@@H](Cc1ccc(O)c(I)c1)C(=O)*; X1 = NC(=O)N[C@@H](CS[*:2])C(=O)[*:1]; d2Nal = N[C@H](Cc1ccc2ccccc2c1)C(=O)O; NMeS = CN[C@@H](CO)C(=O)O A value given as a limit tells only on which side of the number the result lay.

Holding throughout (type): binding
One experiment concerns the target T1, human SSTR1 (Homo sapiens, UniProt P30872).
T1 construct: expressed in transfected cells; host or cells: CHO-K1 cells and CCL39 cells
The experiment is described as follows: Displacement of 125I-[Leu8,D-Trp22,Tyr25]-SRIF-28 from cloned SSTR1 (receptor autoradiography). On the procedure: (§1) Generally, recombinant cells expressing the receptor are washed and homogenized to prepare a crude protein homogenate that is frozen, embedded and then cut in 10–20 μm thin sections, as known in this art. Candidate substances, such as potential SRIF agonists and antagonists, are incubated with the tissue sections, and the interaction between the candidate substance and the receptor polypeptide is monitored.
(§2) Receptor binding assays are performed on cloned SRIF receptors as generally set forth in Reubi, J. C. et al., J. Clin. Endocrinol. […] Med. 2000, 27, 273–282.
(§3) In vitro Bioassay: The various somatostatin analogs are tested in vitro for their ability to bind to isolated cloned receptors expressed on CHO-K1 cells and CCL39 cells. CHO-K1 cells are grown in Ham's F-12 medium, and CCL39 cells are grown in Dulbecco's modified Eagle's medium/Ham's F-12(1:1) mix, supplemented with 10% fetal bovine serum, 100 U/ml penicillin and 100 μg/ml streptomycin, in humidified air containing 5% CO2 at 37° C.
(§4) Cells are washed and prepared to produce homogenates as described in detail in Reubi, J. C. et al, Eur. J. Nucl. Med. 2000, 27, 273–282.
(§5) Receptor autoradiography is performed on 20 μm thick cryostat sections of the membrane pellets, mounted on microscope slides, and then stored at −20° C. […] Increasing concentrations of the unlabeled peptide are used ranging from 0.1–1000 nM. […] IC50 values are calculated after quantification of the data using a computer-assisted image processing system as known in this art.
A general note: In a radioligand displacement assay an active substance lowers the binding of a labelled ligand.

A further experiment deals with T2, human SSTR4 (Homo sapiens, UniProt P31391).
T2 construct: expressed in transfected cells; host or cells: CHO-K1 cells and CCL39 cells
The experiment is described as follows: Displacement of 125I-[Leu8,D-Trp22,Tyr25]-SRIF-28 from cloned SSTR4 (receptor autoradiography). As to conditions: read-out: IC50 (nM) mSSTR4. On the procedure: as §1, §2, §3, §4, §5

A further experiment has as its target T3, human SSTR5 (Homo sapiens, UniProt P35346).
T3 construct: expressed in transfected cells; host or cells: CHO-K1 cells and CCL39 cells
The experiment is described as follows: Displacement of 125I-[Leu8,D-Trp22,Tyr25]-SRIF-28 from cloned SSTR5 (receptor autoradiography). As to conditions: read-out: IC50 (nM) mSSTR5. As for the experimental part:
as §1, §2, §3, §4
(§6) Receptor autoradiography is performed on 20 μm thick cryostat sections of the membrane pellets, mounted on microscope slides, and then stored at −20° C. […] […] […] IC50 values are calculated after quantification of the data using a computer-assisted image processing system as known in this art.

Another experiment deals with T4, human SSTR3 (Homo sapiens, UniProt P32745).
T4 construct: expressed in transfected cells; host or cells: CHO-K1 cells and CCL39 cells
Briefly: Displacement of 125I-[Leu8,D-Trp22,Tyr25]-SRIF-28 from cloned SSTR3 (receptor autoradiography). As to conditions: read-out: IC50 (nM) mSSTR3. On the procedure:
as §1, §2, §3, §4, §5

The target of a further experiment is T5, human SSTR2 (Homo sapiens, UniProt P30874).
T5 construct: expressed in transfected cells; host or cells: CHO-K1 cells and CCL39 cells
The experiment is described as follows: Displacement of 125I-[Leu8,D-Trp22,Tyr25]-SRIF-28 from cloned SSTR2 (receptor autoradiography). As to conditions: read-out: IC50 (nM) mSSTR2. On the procedure: as §1, §2, §3, §4, §6

Setting [1] is: inhibition of radioligand binding of 125I-[Leu8,D-Trp22,Tyr24]SRIF-28, cloned receptor, table, read-out: IC50 (nM) mSSTR1.
Setting [2] is: unit inferred, read-out: IC50 / binding affinity at SSTR1, unit inferred.

T4 sequence (P32745 whole entry): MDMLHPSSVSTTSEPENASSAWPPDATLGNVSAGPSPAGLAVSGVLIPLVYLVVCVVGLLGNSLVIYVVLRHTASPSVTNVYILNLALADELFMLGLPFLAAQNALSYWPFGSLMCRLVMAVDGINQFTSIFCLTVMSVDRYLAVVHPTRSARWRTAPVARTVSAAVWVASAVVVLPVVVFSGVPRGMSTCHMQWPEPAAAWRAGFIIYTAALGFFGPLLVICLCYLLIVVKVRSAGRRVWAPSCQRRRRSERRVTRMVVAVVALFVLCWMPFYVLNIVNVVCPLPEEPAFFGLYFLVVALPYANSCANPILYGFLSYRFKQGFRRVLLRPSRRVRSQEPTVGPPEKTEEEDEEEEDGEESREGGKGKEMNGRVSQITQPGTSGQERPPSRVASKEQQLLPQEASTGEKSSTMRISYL
T2 sequence (P31391 whole entry): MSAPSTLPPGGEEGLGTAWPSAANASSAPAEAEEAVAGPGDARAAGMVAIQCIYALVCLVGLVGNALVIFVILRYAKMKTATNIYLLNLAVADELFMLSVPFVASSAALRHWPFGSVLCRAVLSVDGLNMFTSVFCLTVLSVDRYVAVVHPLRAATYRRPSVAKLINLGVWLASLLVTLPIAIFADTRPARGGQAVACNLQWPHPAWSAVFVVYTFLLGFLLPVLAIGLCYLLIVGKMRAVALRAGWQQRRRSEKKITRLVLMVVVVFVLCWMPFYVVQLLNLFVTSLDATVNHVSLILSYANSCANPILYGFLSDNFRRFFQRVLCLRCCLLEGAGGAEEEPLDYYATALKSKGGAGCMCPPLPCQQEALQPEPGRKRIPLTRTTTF
T1 sequence (P30872 whole entry): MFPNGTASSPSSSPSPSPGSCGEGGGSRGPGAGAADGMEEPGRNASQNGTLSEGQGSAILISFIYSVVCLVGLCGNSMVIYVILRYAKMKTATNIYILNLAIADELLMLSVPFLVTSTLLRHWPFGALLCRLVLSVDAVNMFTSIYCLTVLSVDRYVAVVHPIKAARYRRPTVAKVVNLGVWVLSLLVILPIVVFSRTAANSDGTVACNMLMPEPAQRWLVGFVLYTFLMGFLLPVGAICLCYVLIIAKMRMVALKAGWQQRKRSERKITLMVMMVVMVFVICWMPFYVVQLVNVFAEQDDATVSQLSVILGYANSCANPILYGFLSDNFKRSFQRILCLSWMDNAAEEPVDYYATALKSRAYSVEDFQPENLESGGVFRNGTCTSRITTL
T3 sequence (P35346 whole entry): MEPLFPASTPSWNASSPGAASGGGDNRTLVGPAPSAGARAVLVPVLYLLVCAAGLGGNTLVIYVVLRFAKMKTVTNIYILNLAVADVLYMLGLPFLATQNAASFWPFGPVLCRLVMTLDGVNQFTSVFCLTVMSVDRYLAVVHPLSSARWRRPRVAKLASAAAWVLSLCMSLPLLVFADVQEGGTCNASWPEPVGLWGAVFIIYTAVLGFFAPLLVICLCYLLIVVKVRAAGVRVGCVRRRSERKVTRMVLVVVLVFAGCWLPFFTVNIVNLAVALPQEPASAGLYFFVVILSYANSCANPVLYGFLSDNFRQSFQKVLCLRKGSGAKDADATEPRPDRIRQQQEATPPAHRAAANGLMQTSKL
T5 sequence (P30874 whole entry): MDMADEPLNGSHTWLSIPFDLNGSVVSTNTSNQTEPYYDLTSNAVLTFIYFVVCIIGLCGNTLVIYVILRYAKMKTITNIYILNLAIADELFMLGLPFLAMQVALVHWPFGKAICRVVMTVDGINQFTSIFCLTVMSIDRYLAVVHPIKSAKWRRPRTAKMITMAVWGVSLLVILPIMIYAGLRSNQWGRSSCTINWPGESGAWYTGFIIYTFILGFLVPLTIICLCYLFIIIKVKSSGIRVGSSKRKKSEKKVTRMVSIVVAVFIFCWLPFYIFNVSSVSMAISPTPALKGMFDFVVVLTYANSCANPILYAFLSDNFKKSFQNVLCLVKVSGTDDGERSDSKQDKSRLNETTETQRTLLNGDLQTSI

For `CC(C)NCc1ccc(C[C@@H]2NC(=O)[C@@H](Cc3c[nH]c4ccccc34)NC(=O)[C@H](Cc3ccccc3)NC(=O)[C@H](Cc3ccccc3)NC(=O)[C@H](CCCCN)NC(=O)[C@@H](NC(=O)[C@H](Cc3ccc(O)c(I)c3)NC(N)=O)CSSC[C@@H](C(=O)O)NC(=O)[C@H](CO)NC(=O)[C@H]([C@@H](C)O)NC(=O)[C@H](Cc3ccccc3)NC(=O)[C@H]([C@@H](C)O)NC2=O)cc1` [Peptide No. 14B] (X3-CKFF[dW][Phe(4-CH2NHiPr)]TFTSC-OH; disulfide 1-11), the IC50 at human SSTR1 (setting [1]) is 34.7 nM; at human SSTR4 it was > 1000 nM; on human SSTR5, > 1000 nM; on human SSTR3, 290 nM; on human SSTR2, > 1000 nM.

In the case of `CC(C)NCc1ccc(C[C@@H]2NC(=O)[C@@H](Cc3c[nH]c4ccccc34)NC(=O)[C@H](Cc3ccccc3)NC(=O)[C@H](Cc3ccccc3)NC(=O)[C@H](CCCCN)NC(=O)[C@H](NC(=O)[C@H](Cc3ccc(O)cc3)NC(N)=O)CSSC[C@@H](C(=O)O)NC(=O)[C@H](CO)NC(=O)[C@H]([C@@H](C)O)NC(=O)[C@H](Cc3ccccc3)NC(=O)[C@H]([C@@H](C)O)NC2=O)cc1` [Peptide No. 14C, (cyclo)CbmTyr-D-Cys-Lys-Phe-Phe-D-Trp-IAmp-Thr-Phe-Thr-Ser-Cys-OH] ({Tyr(Nα-carbamoyl)}-[dC]KFF[dW][Phe(4-CH2NHiPr)]TFTSC-OH; disulfide 1-11), the IC50 on human SSTR1 (setting [1]) is 33 nM; on human SSTR4 (inhibition of radioligand binding of 125I-[Leu8,D-Trp22,Tyr24]SRIF-28, cloned receptor, table), 487 nM; at human SSTR5, > 1000 nM; at human SSTR3, > 1000 nM; on human SSTR2 it was > 10000 nM.

In the case of `CC(C)NCc1ccc(C[C@H]2C(=O)N[C@@H]([C@@H](C)O)C(=O)N[C@@H](Cc3ccccc3)C(=O)N[C@@H]([C@@H](C)O)C(=O)N[C@@H](CO)C(=O)N[C@H](C(=O)O)CSSC[C@H](N)C(=O)N[C@@H](CCCCN)C(=O)N[C@@H](Cc3ccccc3)C(=O)N[C@@H](Cc3ccccc3)C(=O)N[C@H](Cc3ccc4ccccc4c3)C(=O)N2C)cc1` [Peptide No. 15, (cyclo)H-Cys-Lys-Phe-Phe-D-2Nal-N^αMeIAmp-Thr-Phe-Thr-Ser-Cys-OH] (H-CKFF[d2Nal][NMePhe(4-CH2NHiPr)]TFTSC-OH; disulfide 1-11), the IC50 was 43 nM on human SSTR1 (setting [1]); ~32.5 nM on human SSTR1 (setting [2]); > 1000 nM at human SSTR4; > 10000 nM on human SSTR5; > 1000 nM on human SSTR3; > 1000 nM at human SSTR2.

Turning to `CC(C)NCc1ccc(C[C@H]2C(=O)N[C@@H]([C@@H](C)O)C(=O)N[C@@H](Cc3ccc(O)cc3)C(=O)N[C@@H]([C@@H](C)O)C(=O)N[C@@H](CO)C(=O)N[C@H](C(=O)O)CSSC[C@H](NC(N)=O)C(=O)N[C@@H](CCCCN)C(=O)N[C@@H](Cc3ccccc3)C(=O)N[C@@H](Cc3ccccc3)C(=O)N[C@H](Cc3ccc4ccccc4c3)C(=O)N2C)cc1` [Peptide No. 16, (cyclo)CbmCys-Lys-Phe-Phe-D-2Nal-N^αMeIAmp-Thr-Tyr-Thr-Ser-Cys-OH] (KFF[d2Nal][NMePhe(4-CH2NHiPr)]TYTSC-OH; linker N-10 via X1), the IC50 at human SSTR1 (setting [1]) was 32 nM; on human SSTR1 (setting [2]), ~32 nM; on human SSTR4, > 10000 nM; on human SSTR5 it was > 10000 nM; on human SSTR3, > 1000 nM; at human SSTR2, > 10000 nM.

As to `CC(C)NCc1ccc(C[C@@H]2NC(=O)[C@@H](Cc3c[nH]c4ccccc34)NC(=O)[C@H](Cc3ccccc3)NC(=O)[C@H](Cc3ccccc3)NC(=O)[C@H](CCCCN)NC(=O)[C@@H](N)CSSC[C@@H](C(=O)O)NC(=O)[C@H](CO)N(C)C(=O)[C@H]([C@@H](C)O)NC(=O)[C@H](Cc3ccccc3)NC(=O)[C@H]([C@@H](C)O)NC2=O)cc1` [Peptide No. 22A, (cyclo)H-Cys-Lys-Phe-Phe-D-Trp-IAmp-Thr-Phe-Thr-N^αMeSer-Cys-OH] (H-CKFF[dW][Phe(4-CH2NHiPr)]TFT[NMeS]C-OH; disulfide 1-11), the IC50 was 25 nM on human SSTR1 (setting [1]); > 1000 nM on human SSTR4; > 1000 nM on human SSTR5; 600 nM on human SSTR3; > 10000 nM at human SSTR2.
